Laboratory results as given in patent US8623832B2, “Peptide compositions that bind TLR-4” (The Board of Regents of the University of Oklahoma, priority 2011, dated 2014).
“Also recorded” adds a separate entry of the source. Where no end group is shown, it is not given here.

Assays:
[1] = tested on: TLR4; assay: TLR4 expression in JAWS II dendritic cells by immunocytochemistry / confocal microscopy; format: cell-based, mouse
Protocol: TLR4 expression by immunocytochemistry: The JAWS II-DCs were seeded at a density of 25,000 cells per well of an 8-well chamber slide (Nalge Nunc international, New York, USA). Post-LPS (100 ng/ml) treatment with SPA4 peptide (1 and 10 μM; SEQ ID NO:3) followed, and the cells were fixed for 20 minutes with 3.5% paraformaldehyde prepared in PBS on ice. Permeablization was carried out for 20 minutes on ice with Alpha-MEM medium containing 10% FBS and 0.05% saponin and 10 mM HEPES (Inaba et al., 1998). The cells were washed with PBS supplemented with 1% FBS and 0.05% saponin (wash buffer). Non-specific binding sites were blocked using PBS containing 10% normal mouse serum (Sigma, St Louis, Mo.) for 1 hour at room temperature in a humidified chamber. A rabbit polyclonal antibody to mouse TLR4 (Abcam, Cambridge, Mass.) was added to the cells at a dilution of 1:50 and incubated overnight at 4° C. in a humidified chamber. […]
SPA4 peptide (SEQ ID NO:3) inhibits the LPS-induced TLR4 expression in dendritic cells and SW480 intestinal (colonic) epithelial cells. […] First, it was determined if the SPA4 peptide inhibits LPS-induced expression of TLR4 in these cells. […]

[2] = tested on: IL-1β and IL-6; assay: Expression of IL-1β and IL-6 in SW480 cell lysates by immunoblotting; format: cell-based, human
Protocol: Expression of IL-1β and IL-6: Two treatment models (post- and pre-LPS treatment) were utilized for assessing the effects of SPA4 peptide on LPS-induced cytokines: IL-1β and IL-6. Post-LPS treatment models (short-term and long-term) are described above. In pre-LPS treatment model, the SW480 cells were pretreated with SPA4 peptide (10 μM) for 2 hours, followed by LPS-challenge (1.0 μg/ml) for another 4 hours. The cell-lysates were prepared either in commercially available cell-culture lysis reagent (Promega, WI) or directly into SDS-PAGE sample buffer containing 50 mM dithiothreitol (Cell Signalling Technology, MA). Ten μg of cell-lysate proteins were separated on 4-20% Novex Tris-glycine gradient SDS-PAGE gel (Invitrogen, CA) or 10% separating-5% stacking acrylamide gel. The expression levels of cytokines were measured by immunoblotting as described above using 1:1000 diluted antibodies against IL-1β and IL-6. Both antibodies were purchased from Santacruz Biotech, CA.

[3] = tested on: NF-κB; assay: NF-κB luciferase reporter activity in LPS-challenged JAWS II dendritic cells; format: cell-based, mouse
Protocol: At the molecular level, the effects of SPA4 peptide on LPS-induced NF-κB activity were studied in dendritic cells (JAWS II cells) co-transfected with NFκB luciferase reporter plasmid construct and dominant negative construct of MYD88 (an adaptor protein downstream of TLR4; MYD88DN). Briefly, JAWS II dendritic cells (0.5×10^6) were transfected with NF-κB luciferase reporter and/or MYD88DN using TransIT-TKO transfection reagent as described earlier (Awasthi S et al., 2003). After 20-24 hours of incubation, the transfected cells were challenged with LPS (100 ng/ml) for 4 hours and treated with SPA4 peptide (10 μM) for 1 hour. After the completion of 5 hours incubation, the cell lysates were prepared in cell lysis buffer and NF-κB-luciferase reporter activity was measured as per the manufacturer's instructions (Promega, WI).

[4] = tested on: primary adult baboon lung DCs and fetal baboon lung DC-precursor cells; assay: TNF-α secretion against E. coli by baboon lung DCs (ELISA); format: cell-based
Protocol: After confirming that the fluorescence is of phagocytosed bioparticles, comprehensive experiments were performed in presence and absence of effector molecules (SP-A and TLR4-MD2 proteins). The cells were pulsed with purified, native baboon lung SP-A and recombinant human TLR4-MD2 or MD2 proteins (RnD Systems, MN) for an hour prior to phagocytosis assay with pHrodo-conjugated, heat-killed E. coli K12 bioparticles (Invitrogen-Molecular Probes, CA). MD2 protein was also included, because SP-A is known to interact with MD2, and it was questioned if MD2 can influence the immune functions of DC-population. The assay was performed in serum-free Opti-MEM medium (Invitrogen, CA), as described by the manufacturer (Invitrogen-Molecular Probes, CA). The assay mixtures were incubated for another 3 hours at 37° C. in 5% CO2 incubator. The fluorescence readings were taken at 550 nm excitation and 600 nm emission wavelengths using SpectraMax M2 spectrofluorometer (Molecular Devices, CA).
Cytokine (TNF-α) measurement: The TNF-α levels were measured in cell-free supernatants by enzyme linked immunosorbent assay (ELISA) using a commercially available kit (eBioscience, CA), as per the manufacturer's instructions. Briefly, the microwells of a 96 well plate were coated with diluted purified anti-human TNF-α antibody. The wells were washed, and nonspecific sites were blocked. Diluted recombinant human TNF-α (7.8-500 pg/ml standard) and cell-free-supernatant (1:10) were added to the antibody-coated wells, and the plate was incubated overnight at 4° C. The next day, the plate was washed and incubated with biotin-conjugated anti-human TNF-α antibody followed by avidin-horseradish peroxidase and substrate solution. The reaction was stopped by adding 2 N H2SO4 and read at 450 nm (Molecular Devices, CA).

Substance	basal TLR4 expression [1]	LPS-induced TLR4 expression ([1]; post-LPS treatment, p<0.05)	expression of IL-6 precursors or active form, short-term treatment model [2]	expression of low molecular weight precursors and active IL-1β, post-LPS treatment models ([2]; 5 hours and 9 hours, dose-dependent)	IL-6 expression, prolonged treatment ([2]; 6 hours or 9 hours in pre- and post-LPS-treatment models)	expression of IL-1β precursor and active forms, pre-LPS treatment model ([2]; SPA4 10 μM 2 hours then LPS 1.0 μg/ml 4 hours)	expression of IL-1β precursor form 1 ([2]; compared with LPS-treated cells)	MYD88-independent NF-κB activity ([3]; JAWS II co-transfected with MYD88 dominant negative)	LPS-induced NF-κB activity in dendritic cells ([3]; JAWS II, LPS 100 ng/ml 4 hours, SPA4 10 μM 1 hour)	secretion of TNF-α by DCs in response to E. coli ([4]; 3 hours phagocytosis reaction, protein added alone)	TLR4-MD2 protein-induced TNF-α release against E. coli ([4]; SP-A and TLR4-MD2 added together, 3 hours with E. coli)
GDFRYSDGTPVNYTNWYRGE [SPA4, GDFRYSDGT PVNYTNWYRGE]	reduced the basal TLR4 expression	suppressed significantly; also recorded: reduced LPS-induced TLR4 expression to a basal level	not significantly affected	significantly decreased	significantly inhibited	significant decrease	increased or unchanged	does not affect	inhibits	–	–
SP-A: native surfactant protein-A purified from bronchioalveolar lavage fluid of a normal healthy adult baboon (MWLCPLALTLTLMAASGAACEVKDVCVGSPGIPGTPGSHGLPGRDGRDGVKGDPGPP; listed as Papio cynocephalus)	–	–	–	–	–	–	–	–	–	did not induce the secretion of TNF-α	reduces
